Common to all, as to assay type: functional
Assay [1] relates to Rattus norvegicus. The experiment in a line: Percent reduction in swelling of the left hind paw in rat when 40 mg/kg of dose was injected perorally which was determined in adjuvant arthritis test. To be noted: route oral.
Assay [2] is filed under the species Rattus norvegicus. The experiment in a line: Activity relative to fenclofenac determined in adjuvant arthritis test.
Assay [3] concerns Rattus norvegicus. The experiment in a line: Percent reduction in swelling of the left hind paw in rat when 75 mg/kg of dose was injected perorally which was determined in adjuvant arthritis test. To be noted: route oral.
Assay [4] relates to Rattus norvegicus. The assay is described as follows: Minimum ulcerogenic dose was evaluated 24 hours after peroral administration; value may range from 100-200.
For assay [5], the system named is Rattus norvegicus. The experiment in a line: Minimum ulcerogenic dose was evaluated 24 hours after peroral administration.
The test system of assay [6] is Rattus norvegicus. The experiment in a line: Percent reduction in swelling of the left hind paw in rat determined in adjuvant arthritis test, 50 mg/kg dose perorally. To be noted: route oral.
Assay [7] deals with Rattus norvegicus. The assay is described as follows: Percent reduction in swelling of the left hind paw in rat when 10 mg/kg of dose was injected perorally which was determined in adjuvant arthritis test. To be noted: route oral.
The subject of assay [8] is Rattus norvegicus. The assay is described as follows: Minimum ulcerogenic dose was evaluated 24 hours after peroral administration; value may range from 12.5-25.
Assay [9] relates to Rattus norvegicus. The assay is described as follows: Percent reduction in swelling of the left hind paw in rat when 20 mg/kg of dose was injected perorally which was determined in adjuvant arthritis test. Particulars: route oral.
For assay [10], the system named is Rattus norvegicus. The experiment in a line: Percent reduction in swelling of the left hind paw in rat determined in adjuvant arthritis test, 25 mg/kg dose was perorally. To be noted: route oral.
Assay [11] has as its system Rattus norvegicus. The experiment in a line: Minimum ulcerogenic dose was evaluated 24 hours after peroral administration; value may range from 60-120.
In assay [12] the test system is Rattus norvegicus. The experiment in a line: Minimum ulcerogenic dose was evaluated 24 hours after peroral administration; value may range from 50-100.
Assay [13] relates to Rattus norvegicus. The experiment in a line: Percent reduction in swelling of the left hind paw in rat when 25 mg/kg of dose was injected perorally which was determined in adjuvant arthritis test. To be noted: route oral.
Assay [14] deals with Rattus norvegicus. The experiment in a line: Percent reduction in swelling of the left hind paw in rat when 100 mg/kg of dose was injected perorally which was determined in adjuvant arthritis test. To be noted: route oral.
For assay [15], the system named is Rattus norvegicus. The experiment in a line: Minimum ulcerogenic dose was evaluated 24 hours after peroral administration; value may range from 400-800.
Assay [16] has as its system Rattus norvegicus. The assay is described as follows: Percent reduction in swelling of the left hind paw in rat when 2 mg/kg of dose was injected perorally which was determined in adjuvant arthritis test. Particulars: route oral.
Assay [17] deals with Rattus norvegicus. The experiment in a line: Minimum ulcerogenic dose was evaluated 24 hours after peroral administration; value may range from 50-80.
Assay [18] concerns Rattus norvegicus. The experiment in a line: Percent reduction in swelling of the left hind paw in rat when 35 mg/kg of dose was injected perorally which was determined in adjuvant arthritis test. Particulars: route oral.

A value given as a limit tells only on which side of the number the result lay.

On to `Cc1ccc2c(c1)CCNc1cc(C)cc(Cl)c1O2`, for which, in the assay on Rattus norvegicus [1], the Reduction was 19%.
`O=C(O)Cc1ccccc1Oc1c(Cl)cccc1[N+](=O)[O-]`: the Relative potency in the assay listed under Rattus norvegicus [2] turned out to be 2. For the same compound, the Reduction with Rattus norvegicus [3] came out at 45%. Also, the MUD in the assay on Rattus norvegicus [4] came to 100 mg/kg.
In the assay with Rattus norvegicus [5], `O=C(Cc1ccccc1Oc1c(Cl)cccc1[N+](=O)[O-])OC1OC(=O)c2ccccc21` (stereo not given) returned an MUD of over 800 mg/kg. Moreover, in the assay with Rattus norvegicus [6], the Reduction is listed as 30%. Also, the Relative potency in the assay listed under Rattus norvegicus [2] turned out to be 0.7.
Turning to `Nc1cc(Cl)cc(Cl)c1Oc1ccccc1CC(=O)O`, the Reduction in the assay on Rattus norvegicus [7] turned out to be 41%. The Relative potency in the assay listed under Rattus norvegicus [2] is reported as 6.8. The compound also yielded an MUD in the assay with Rattus norvegicus [8] of 12.5 mg/kg.
For the compound `COc1cc(Cl)cc2c1Oc1ccc(C)cc1CCN2`, the Reduction in the assay on Rattus norvegicus [3] is 1%.
Take `Cc1cccc(N(C)C)c1Oc1ccccc1CC(=O)O`: the Reduction with Rattus norvegicus [9] came out at 38%. Moreover, in the assay listed under Rattus norvegicus [2], the Relative potency was 2.1. In the assay on Rattus norvegicus [4], this compound yielded an MUD of 100 mg/kg.
`Cc1c(N)c(Oc2ccccc2CC(=O)O)c(Cl)c(C)c1Cl`: the Reduction in the assay with Rattus norvegicus [10] came out at 4%. Further, the MUD in the assay on Rattus norvegicus [11] was determined as 60 mg/kg.
As for `CNc1cc(Cl)cc(Cl)c1Oc1ccccc1CC(=O)OC`, in the assay with Rattus norvegicus [12], the MUD worked out at 50 mg/kg. Moreover, in the assay with Rattus norvegicus [6], the Reduction amounted to 36%. Further, the Relative potency in the assay filed under Rattus norvegicus [2] was 2.5.
As for `Clc1cc(Cl)c2c(c1)NCCc1ccccc1O2`, in the assay on Rattus norvegicus [13], the Reduction is 41%. For the same compound, the Relative potency in the assay filed under Rattus norvegicus [2] was 2.1.
As for `Cc1cc(Cl)c2c(c1)NCCc1ccccc1O2`, the Reduction in the assay on Rattus norvegicus [13] is 23%.
On to `CC(=O)N1CCc2ccccc2Oc2c(Cl)cc(Cl)cc21`, for which, in the assay with Rattus norvegicus [3], the Reduction is reported as 10%.
`O=[N+]([O-])c1cccc(Cl)c1Oc1ccccc1CCO`: the MUD in the assay on Rattus norvegicus [12] stood at 50 mg/kg. Also, the Reduction with Rattus norvegicus [14] stood at 37%.
With `Cc1cccc(N)c1Oc1ccccc1CC(=O)O`, in the assay with Rattus norvegicus [10], the Reduction was found to be 32%. For the same compound, in the assay on Rattus norvegicus [15], the MUD stood at 400 mg/kg. In addition, the Relative potency in the assay filed under Rattus norvegicus [2] turned out to be 1.9.
Consider `Nc1c(Cl)c(Cl)cc(Cl)c1Oc1ccccc1CC(=O)O`, for which the MUD in the assay with Rattus norvegicus [12] turned out to be 50 mg/kg. The Reduction in the assay on Rattus norvegicus [7] is 37%. For the same compound, in the assay listed under Rattus norvegicus [2], the Relative potency was 11.6.
In the case of `CNc1cc(Cl)cc(Cl)c1Oc1ccccc1CC(=O)O`, the Relative potency in the assay filed under Rattus norvegicus [2] turned out to be 13. Besides, in the assay on Rattus norvegicus [16], the Reduction is 22%.
On to `COC(=O)Cc1ccccc1Oc1c(N)cc(Cl)cc1Cl`, for which, in the assay on Rattus norvegicus [17], the MUD was 50 mg/kg. In addition, the Reduction with Rattus norvegicus [10] is recorded as 38%. Also, the Relative potency in the assay filed under Rattus norvegicus [2] was 7.5.
The compound `Nc1cc(C(F)(F)F)ccc1Oc1ccccc1CC(=O)O` yielded an MUD in the assay with Rattus norvegicus [15] of 400 mg/kg. Also, the Relative potency in the assay listed under Rattus norvegicus [2] stood at 2.1. Further, the Reduction in the assay on Rattus norvegicus [14] is 36%.
Take `Nc1ccccc1Oc1ccccc1CC(=O)O`: in the assay with Rattus norvegicus [18], the Reduction came out at 2%.

The record behind these values is ChEMBL document CHEMBL1122891, “Substituted 5H-dibenz[b,g]-1,4-oxazocines and related amino acids with antiinflammatory activity” (1985).
